Tested on: MV-4-11 cells
Assay: Gene expression microarray analysis (Affymetrix PrimeView) and GSEA
Assay type: cell-based, human
Design: RFU PODN (11730768_x_at) / Fold change /veh PODN (11730768_x_at) / RFU LINC00158 (11744669_a_at) / Fold change /veh LINC00158 (11744669_a_at) / RFU DUSP10 (11751237_a_at) / Fold change /veh DUSP10 (11751237_a_at) / RFU ID3 (11757404_x_at) / Fold change /veh ID3 (11757404_x_at) / RFU PLEKHG5 (11737974_s_at) / Fold change /veh PLEKHG5 (11737974_s_at) / RFU LRRC4B (11730491_at) / Fold change /veh LRRC4B (11730491_at) / RFU GIMAP4 (11747438_a_at) / Fold change /veh GIMAP4 (11747438_a_at) / RFU KRT8 (11758183_x_at) / Fold change /veh KRT8 (11758183_x_at) / RFU CNN1 (11734310_a_at) / Fold change /veh CNN1 (11734310_a_at) / RFU VPS37D (11726825_at) / Fold change /veh VPS37D (11726825_at) / RFU C10orf10 (11716522_x_at) / Fold change /veh C10orf10 (11716522_x_at) / RFU KIR2DL2 /// KIR2DL4 /// KIR2DL5A /// KIR2DL5B /// KIR2DS1 /// KIR2DS2 /// KIR2DS3 /// KIR2DS4 /// KIR3DL3 /// KIR3DL3 /// KIR3DS1 (11738374_at) / Fold change /veh KIR2DL2 /// KIR2DL4 /// KIR2DL5A /// KIR2DL5B /// KIR2DS1 /// KIR2DS2 /// KIR2DS3 /// KIR2DS4 /// KIR3DL3 /// KIR3DL3 /// KIR3DS1 (11738374_at) / RFU C1QL1 (11718748_at) / Fold change /veh C1QL1 (11718748_at) / RFU TMPRSS4 (11747572_a_at) / Fold change /veh TMPRSS4 (11747572_a_at) / RFU HAMP (11756126_x_at) / Fold change /veh HAMP (11756126_x_at) / RFU RNFT2 (11725882_a_at) / Fold change /veh RNFT2 (11725882_a_at) / RFU NR4A2 (11747474_a_at) / Fold change /veh NR4A2 (11747474_a_at) / RFU ABCC12 (11746883_a_at) / Fold change /veh ABCC12 (11746883_a_at) / RFU TMEM136 (11760407_x_at) / Fold change /veh TMEM136 (11760407_x_at) / RFU CLDN22 /// WWC2 (11732394_at) / Fold change /veh CLDN22 /// WWC2 (11732394_at) / RFU HLA-DPB1 (11760878_x_at) / Fold change /veh HLA-DPB1 (11760878_x_at) / RFU SPINT1 (11716480_a_at) / Fold change /veh SPINT1 (11716480_a_at) / RFU GAP43 (11754022_s_at) / Fold change /veh GAP43 (11754022_s_at) / RFU A4GNT (11735810_at) / Fold change /veh A4GNT (11735810_at) / RFU PRB3 (11715151_x_at) / Fold change /veh PRB3 (11715151_x_at) / RFU TUBB4B (11761932_at) / Fold change /veh TUBB4B (11761932_at) / RFU CAPN14 (11732068_a_at) / Fold change /veh CAPN14 (11732068_a_at) / RFU TMCC2 (11721928_a_at) / Fold change /veh TMCC2 (11721928_a_at) / RFU IRGQ (11745062_a_at) / Fold change /veh IRGQ (11745062_a_at) / RFU FAM174B (11720279_a_at) / Fold change /veh FAM174B (11720279_a_at) / RFU TMPRSS4 (11748680_a_at) / Fold change /veh TMPRSS4 (11748680_a_at) / RFU FAM212B (11763350_a_at) / Fold change /veh FAM212B (11763350_a_at) / RFU PLEKHG5 (11743358_a_at) / Fold change /veh PLEKHG5 (11743358_a_at) / RFU ZSCAN30 (11745921_a_at) / Fold change /veh ZSCAN30 (11745921_a_at) / RFU CMKLR1 (11741424_a_at) / Fold change /veh CMKLR1 (11741424_a_at) / RFU LOC101060620 /// MAPK8IP1 (11723275_at) / Fold change /veh LOC101060620 /// MAPK8IP1 (11723275_at) / RFU SPTSSB (11747773_x_at) / Fold change /veh SPTSSB (11747773_x_at) / RFU PRSS12 (11739890_at) / Fold change /veh PRSS12 (11739890_at) / RFU BIN1 (11741810_x_at) / Fold change /veh BIN1 (11741810_x_at) / RFU WNT11 (11732464_a_at) / Fold change /veh WNT11 (11732464_a_at) / RFU C10orf10 (11716521_a_at) / Fold change /veh C10orf10 (11716521_a_at) / RFU C5orf56 (11738089_at) / Fold change /veh C5orf56 (11738089_at) / RFU CYB561 (11721691_x_at) / Fold change /veh CYB561 (11721691_x_at) / RFU ANKRD19P (11752326_a_at) / Fold change /veh ANKRD19P (11752326_a_at) / RFU OR2T12 /// OR2T33 /// OR2T8 (11738714_s_at) / Fold change /veh OR2T12 /// OR2T33 /// OR2T8 (11738714_s_at) / RFU VCAN (11748164_a_at) / Fold change /veh VCAN (11748164_a_at) / RFU JSRP1 (11732532_at) / Fold change /veh JSRP1 (11732532_at) / RFU KRTAP10-11 (11738290_x_at) / Fold change /veh KRTAP10-11 (11738290_x_at) / RFU MYO3A (11730013_a_at) / Fold change /veh MYO3A (11730013_a_at) / RFU EBF3 (11725865_a_at) / Fold change /veh EBF3 (11725865_a_at) / RFU CAMK2N1 (11719241_x_at) / Fold change /veh CAMK2N1 (11719241_x_at) / RFU C5orf56 (11738088_a_at) / Fold change /veh C5orf56 (11738088_a_at) / RFU OLFML3 (11715873_a_at) / Fold change /veh OLFML3 (11715873_a_at) / RFU LOC100653217 /// NTM (11731650_a_at) / Fold change /veh LOC100653217 /// NTM (11731650_a_at) / RFU MAPK11 (11762145_a_at) / Fold change /veh MAPK11 (11762145_a_at) / RFU FIZ1 (11724087_x_at) / Fold change /veh FIZ1 (11724087_x_at) / RFU OASL (11726364_x_at) / Fold change /veh OASL (11726364_x_at) / RFU SOX15 (11748057_x_at) / Fold change /veh SOX15 (11748057_x_at) / RFU CD79A (11719716_a_at) / Fold change /veh CD79A (11719716_a_at) / RFU HIST1H1D (11736915_at) / Fold change /veh HIST1H1D (11736915_at) / RFU CASKIN2 (11723855_a_at) / Fold change /veh CASKIN2 (11723855_a_at) / RFU LOC730098 (11760151_x_at) / Fold change /veh LOC730098 (11760151_x_at) / RFU OR4N2 (11742367_at) / Fold change /veh OR4N2 (11742367_at) / RFU PRRT2 (11749266_a_at) / Fold change /veh PRRT2 (11749266_a_at) / RFU SNX32 (11753110_a_at) / Fold change /veh SNX32 (11753110_a_at) / RFU CDHR5 (11726645_a_at) / Fold change /veh CDHR5 (11726645_a_at) / RFU RCAN1 (11760418_a_at) / Fold change /veh RCAN1 (11760418_a_at) / RFU FAM167A (11723789_a_at) / Fold change /veh FAM167A (11723789_a_at) / RFU FAM26E (11764081_at) / Fold change /veh FAM26E (11764081_at) / RFU ISYNA1 (11749810_s_at) / Fold change /veh ISYNA1 (11749810_s_at) / RFU ACY1 (11761880_at) / Fold change /veh ACY1 (11761880_at) / RFU 11764098_at / Fold change /veh 11764098_at / RFU SAMD14 (11745864_x_at) / Fold change /veh SAMD14 (11745864_x_at) / RFU NPB (11741838_a_at) / Fold change /veh NPB (11741838_a_at) / RFU TMPRSS6 (11731388_a_at) / Fold change /veh TMPRSS6 (11731388_a_at) / RFU KRTAP10-2 (11738614_at) / Fold change /veh KRTAP10-2 (11738614_at) / RFU ARHGAP8 /// PRR5-ARHGAP8 (11727945_x_at) / Fold change /veh ARHGAP8 /// PRR5-ARHGAP8 (11727945_x_at) / RFU KRTAP5-7 /// NADSYN1 (11734609_at) / Fold change /veh KRTAP5-7 /// NADSYN1 (11734609_at) / RFU RASL12 (11751679_a_at) / Fold change /veh RASL12 (11751679_a_at) / RFU CDKN2B (11736163_a_at) / Fold change /veh CDKN2B (11736163_a_at) / RFU PRF1 (11729649_at) / Fold change /veh PRF1 (11729649_at) / RFU, ZNF638 /// ZNF638-IT1 / Fold change vs veh, ZNF638 /// ZNF638-IT1 / RFU, PANK3 / Fold change vs veh, PANK3 / RFU, SH3YL1 / Fold change vs veh, SH3YL1 / RFU, ZEB2 / Fold change vs veh, ZEB2 / RFU, NRIP1 / Fold change vs veh, NRIP1 / RFU, PTTG1IP / Fold change vs veh, PTTG1IP / RFU, CAPN2 / Fold change vs veh, CAPN2 / RFU, MED14 / Fold change vs veh, MED14 / RFU, SNORA58 / Fold change vs veh, SNORA58 / RFU, C1orf63 / Fold change vs veh, C1orf63 / RFU, LRRFIP1 / Fold change vs veh, LRRFIP1 / RFU, NDUFAF7 / Fold change vs veh, NDUFAF7 / RFU, SLC12A2 / Fold change vs veh, SLC12A2 / RFU, IBTK / Fold change vs veh, IBTK / RFU, ESF1 / Fold change vs veh, ESF1 / Fold change vs veh, TMEM50B / RFU, TAOK1 / Fold change vs veh, TAOK1 / RFU, ACBD3 / Fold change vs veh, ACBD3 / RFU, TMA16 / Fold change vs veh, TMA16 / RFU, RWDD3 / Fold change vs veh, RWDD3 / RFU, BCAT1 / Fold change vs veh, BCAT1 / RFU, EDEM3 / Fold change vs veh, EDEM3 / RFU, TMEM33 / Fold change vs veh, TMEM33 / RFU, WDR75 / Fold change vs veh, WDR75 / RFU, AHCTF1 / Fold change vs veh, AHCTF1 / RFU, TFRC / Fold change vs veh, TFRC / RFU, ZDHHC17 / Fold change vs veh, ZDHHC17 / RFU, NOM1 / Fold change vs veh, NOM1 / RFU, ARL8B / Fold change vs veh, ARL8B / RFU, ZBTB11 / Fold change vs veh, ZBTB11 / RFU, TAMM41 / Fold change vs veh, TAMM41 / RFU, KIAA1704 /// LOC100996395 / Fold change vs veh, KIAA1704 /// LOC100996395 / RFU, ING1 / Fold change vs veh, ING1 / RFU, TRMT61B / Fold change vs veh, TRMT61B / RFU, FUBP3 / Fold change vs veh, FUBP3 / RFU, TP53 / Fold change vs veh, TP53 / RFU, TNKS2 / Fold change vs veh, TNKS2 / RFU, ZFP14 / Fold change vs veh, ZFP14 / RFU, ACTR2 / Fold change vs veh, ACTR2 / RFU, PPP3R1 / Fold change vs veh, PPP3R1 / RFU, PIK3R1 / Fold change vs veh, PIK3R1 / RFU, HNRNPA1 / Fold change vs veh, HNRNPA1 / RFU, RNF170 / Fold change vs veh, RNF170 / RFU, ZNF28 / Fold change vs veh, ZNF28 / RFU, RNGTT / Fold change vs veh, RNGTT / RFU, OGT / Fold change vs veh, OGT / RFU, BRD1 / Fold change vs veh, BRD1 / RFU, MARS / Fold change vs veh, MARS / RFU, ZNF655 / Fold change vs veh, ZNF655 / RFU, FAHD1 / Fold change vs veh, FAHD1 / RFU, BDP1 / Fold change vs veh, BDP1 / RFU, LRRCC1 / Fold change vs veh, LRRCC1 / RFU, ARID1A / Fold change vs veh, ARID1A / RFU, ZNF146 / Fold change vs veh, ZNF146 / RFU, ZNF330 / Fold change vs veh, ZNF330 / RFU, GPN3 / Fold change vs veh, GPN3 / RFU, C9orf123 / Fold change vs veh, C9orf123 / RFU, N4BP2L2 / Fold change vs veh, N4BP2L2 / RFU, ARFIP1 / Fold change vs veh, ARFIP1 / RFU, FAM179B / Fold change vs veh, FAM179B / RFU, BCL10 / Fold change vs veh, BCL10 / RFU, UHRF1BP1L / Fold change vs veh, UHRF1BP1L / RFU, BET1 / Fold change vs veh, BET1 / RFU, CNOT2 / Fold change vs veh, CNOT2 / RFU, ZNF268 / Fold change vs veh, ZNF268 / Fold change vs veh, ZNF507 / RFU, DGCR2 / Fold change vs veh, DGCR2 / RFU, WDSUB1 / Fold change vs veh, WDSUB1 / Fold change vs veh, HSP90B1 /// MIR3652 / RFU, ADSS / Fold change vs veh, ADSS / RFU, GK / Fold change vs veh, GK / RFU, ZNF148 / Fold change vs veh, ZNF148 / RFU, TAF9 / Fold change vs veh, TAF9 / RFU, SLC1A5 / Fold change vs veh, SLC1A5 / RFU, SLMO2 / Fold change vs veh, SLMO2 / RFU, ABCC4 / Fold change vs veh, ABCC4 / RFU, LOC101060439 /// RAP1B / Fold change vs veh, LOC101060439 /// RAP1B / RFU, RFX7 / Fold change vs veh, RFX7 / RFU, GTPBP10 / Fold change vs veh, GTPBP10 / RFU, CNEP1R1 / Fold change vs veh, CNEP1R1 / RFU, BIVM-ERCC5 /// ERCC5 / Fold change vs veh, BIVM-ERCC5 /// ERCC5 / RFU, ILF3 / Fold change vs veh, ILF3 / RFU 11762660_at / Fold change /veh 11762660_at / RFU VCAN (11757783_s_at) / Fold change /veh VCAN (11757783_s_at) / RFU DDX43 (11728927_at) / Fold change /veh DDX43 (11728927_at) / RFU KRT8 (11758188_x_at) / Fold change /veh KRT8 (11758188_x_at) / RFU NKD1 (11759106_at) / Fold change /veh NKD1 (11759106_at) / RFU SRD5A1 (11742802_a_at) / Fold change /veh SRD5A1 (11742802_a_at) / RFU TPSAB1 /// TPSB2 (11721975_s_at) / Fold change /veh TPSAB1 /// TPSB2 (11721975_s_at) / RFU GSTM3 (11746129_a_at) / Fold change /veh GSTM3 (11746129_a_at) / RFU IL23R (11737362_x_at) / Fold change /veh IL23R (11737362_x_at) / RFU TMEM51 (11727254_a_at) / Fold change /veh TMEM51 (11727254_a_at) / RFU PIWIL2 (11732686_x_at) / Fold change /veh PIWIL2 (11732686_x_at) / RFU ORM1 (11744905_x_at) / Fold change /veh ORM1 (11744905_x_at) / RFU CCDC152 (11743942_at) / Fold change /veh CCDC152 (11743942_at) / RFU ECM1 (11717891_a_at) / Fold change /veh ECM1 (11717891_a_at) / RFU IL23R (11748794_a_at) / Fold change /veh IL23R (11748794_a_at) / RFU TNFAIP8L3 (11732012_x_at) / Fold change /veh TNFAIP8L3 (11732012_x_at) / RFU MBOAT4 (11741988_at) / Fold change /veh MBOAT4 (11741988_at) / RFU 11764193_at / Fold change /veh 11764193_at / RFU TMEM53 (11763286_at) / Fold change /veh TMEM53 (11763286_at) / RFU MAGEB2 (11727129_at) / Fold change /veh MAGEB2 (11727129_at) / RFU TMEM200A (11744735_a_at) / Fold change /veh TMEM200A (11744735_a_at) / RFU CCDC152 (11751479_a_at) / Fold change /veh CCDC152 (11751479_a_at) / RFU FAM211A (11726209_a_at) / Fold change /veh FAM211A (11726209_a_at) / RFU RGS16 (11746705_a_at) / Fold change /veh RGS16 (11746705_a_at) / RFU VCAN (11755009_s_at) / Fold change /veh VCAN (11755009_s_at) / RFU RHOB (11743442_s_at) / Fold change /veh RHOB (11743442_s_at) / RFU RGS16 (11720943_a_at) / Fold change /veh RGS16 (11720943_a_at) / RFU RGS16 (11720944_at) / Fold change /veh RGS16 (11720944_at) / RFU, VPS4B / Fold change vs veh, VPS4B / RFU, CREB1 / Fold change vs veh, CREB1 / RFU, DNAJC13 / Fold change vs veh, DNAJC13 / RFU, GNAQ / Fold change vs veh, GNAQ / RFU, CDK5R1 / Fold change vs veh, CDK5R1 / RFU, ZRANB3 / Fold change vs veh, ZRANB3 / RFU, CUL4A / Fold change vs veh, CUL4A / RFU, CCNY / Fold change vs veh, CCNY / RFU, UFL1 / Fold change vs veh, UFL1 / RFU, COG3 / Fold change vs veh, COG3 / RFU, DIAPH2 / Fold change vs veh, DIAPH2 / RFU, SKA2 / Fold change vs veh, SKA2 / RFU, AFF3 / Fold change vs veh, AFF3 / RFU, LMF1 / Fold change vs veh, LMF1 / RFU, IPO11 / Fold change vs veh, IPO11 / RFU, DFFB / Fold change vs veh, DFFB / RFU, FOXP1 / Fold change vs veh, FOXP1 / RFU, CARD8 / Fold change vs veh, CARD8 / RFU, STRN3 / Fold change vs veh, STRN3 / RFU, ADK / Fold change vs veh, ADK / RFU, RASSF2 / Fold change vs veh, RASSF2 / RFU, WIPF1 / Fold change vs veh, WIPF1 / RFU, LARP1B / Fold change vs veh, LARP1B / RFU, RASA1 / Fold change vs veh, RASA1 / RFU, RB1 / Fold change vs veh, RB1 / RFU, PPFIA1 / Fold change vs veh, PPFIA1 / RFU, MAT2A / Fold change vs veh, MAT2A / RFU, CCT5 / Fold change vs veh, CCT5 / RFU, WDR92 / Fold change vs veh, WDR92 / RFU, CUX1 / Fold change vs veh, CUX1 / RFU, TTC7A / Fold change vs veh, TTC7A / RFU, TMEM135 / Fold change vs veh, TMEM135 / RFU, DEPTOR / Fold change vs veh, DEPTOR / RFU, CPM / Fold change vs veh, CPM / RFU, DNAJB6 / Fold change vs veh, DNAJB6 / RFU, CACNA2D3 / Fold change vs veh, CACNA2D3 / RFU, DTX4 / Fold change vs veh, DTX4 / RFU, TFCP2 / Fold change vs veh, TFCP2 / RFU, GMCL1 /// GMCL1P1 / Fold change vs veh, GMCL1 /// GMCL1P1 / RFU, AEBP2 / Fold change vs veh, AEBP2 / RFU, SNHG1 /// SNORD22 /// SNORD25 /// SNORD26 /// SNORD27 /// SNORD28 /// SNORD29 /// SNORD31 / Fold change vs veh, SNHG1 /// SNORD22 /// SNORD25 /// SNORD26 /// SNORD27 /// SNORD28 /// SNORD29 /// SNORD31 / Fold change (Aza/veh), C12orf56 (ProbeSet 11735607_a_at) / Fold change (ACY-1035/veh), C12orf56 (ProbeSet 11735607_a_at) / Fold change (Aza/veh), FGFR1OP (ProbeSet 11751329_s_at) / Fold change (ACY-1035/veh), FGFR1OP (ProbeSet 11751329_s_at) / Fold change (Aza/veh), VPS36 (ProbeSet 11739960_a_at) / Fold change (ACY-1035/veh), VPS36 (ProbeSet 11739960_a_at) / RFU SYPL1 (11715823_x_at) / Fold change /veh SYPL1 (11715823_x_at) / RFU IGFBP7 (11715501_s_at) / Fold change /veh IGFBP7 (11715501_s_at) / RFU REEP3 (11722064_at) / Fold change /veh REEP3 (11722064_at) / RFU IGLL1 (11728026_x_at) / Fold change /veh IGLL1 (11728026_x_at): dose or concentration left out as unconfirmed
Details: MV-4-11 cells, 48 hours

Structure (SMILES): Nc1ccc(-c2cccs2)cc1NC(=O)c1ccc2c(c1)cc(C1CC1)n2CCN1CCOCC1 [ACY-1035]
- RFU CAPN14 (11732068_a_at): 10.99 RFU

Reference: PMC5218480 (PLoS ONE, 2017)
